Source: patent US20130338574A1, “ORAL MEDICINAL COMPOSITION FOR PATIENTS UNDERGOING PERITONEAL DIALYSIS AND METHOD FOR USING SAME” (TOKAI UNIVERSITY EDUCATIONAL SYSTEM, priority 2010, published 2013)

Assays:
[1] = tested on: pentosidine in the peritoneal tissue; assay: Peritoneum protective effect: pentosidine in peritoneal tissue of uremic rat models (Experimental Example 4); assay type: in vivo, rats; details: oral 30 mg/rat/day, 7 days
Method: The protective effect of oral administration of a pyridoxamine salt on the deterioration of the peritoneum caused by peritoneal dialysis was evaluated. More specifically, uremic rat models were subjected to intraperitoneal administration of a peritoneal dialysis fluid together with oral administration of a pyridoxamine salt, and the concentration of pentosidine in the peritoneal tissue, which was an indicator of tissue degeneration caused by enhanced carbonyl stress, was measured. Pentosidine is an advanced glycation/lipoxidation end product (AGE). Kidney subtotal excision rats were produced in the same manner as in Experimental Example 2. […] The sample for pentosidine measurement prepared in the above manner was subjected to HPLC under the following conditions, and pentosidine contained in the peritoneum was quantitatively analyzed. The quantitative analysis was performed using a standard calibration curve previously prepared by measurement under the following HPLC conditions using standard solutions of synthetic pentosidine of known concentrations. […] Stationary phase: C18 column (Puresil, 4.6×250 mm, 5 μm; Nihon Waters K.K.) Flow rate: 0.8 mL/min Detection: Fluorescence detection (excitation wavelength: 335 nm/absorption wavelength: 385 nm) (fluorescence detector: Shimadzu Corporation) Sample volume: 20 μL

[2] = Stability of pyridoxamine in peritoneal dialysis fluid (HPLC); assay type: physicochemical; details: for peak height of pyridoxamine measured by HPLC / rate of peak height of pyridoxamine to first measurement day: 5 μg/ml
Description: • Peritoneal dialysis fluid: Dianeal (registered trademark)-N PD-4-1.5 (Baxter Limited) • Pyridoxamine dihydrochloride (Wako Pure Chemical Industries, Ltd.)
The above peritoneal dialysis fluid is composed of an acid solution containing glucose (pH 3.5 to 4.5) and an alkaline solution containing an electrolyte, such as sodium lactate (pH 7.0 to 7.7), which are respectively placed in upper and lower compartments of a two-compartment container divided by an openable partition. When peritoneal dialysis treatment is performed on a chronic renal failure patient, the partition is opened between the upper and lower compartments so that both solutions are mixed, and the mixture is used after its pH is adjusted to a neutral range (pH 6.5 to 7.5).
The glucose-containing solution (pH 4.15) in the upper compartment of the peritoneal dialysis fluid bag, the electrolyte solution (pH 7.02) in the lower compartment, and the mixture of the upper and lower compartment solutions (pH 6.76) were used as solvents, and 5 μg/ml of pyridoxamine dihydrochloride was dissolved in each solvent to obtain test samples. The test samples were left for three weeks at room temperature (25±5° C.), which was almost the same condition that renal failure patients generally store. During that period, sampling was conducted with time, and the amount of pyridoxamine contained in each test sample was measured.
The amount of pyridoxamine contained in the test samples was measured by high-performance liquid chromatography (HPLC) under the following conditions.
High-performance liquid chromatography: Shimadzu Corporation
Mobile phase: 0.1% trifluoroacetic acid-containing aqueous solution
Stationary phase: C18 column (Develosil), 4.6×150 mm, 5 μm; Nomura Chemical Co., Ltd.)
Detection: UV detection of absorbance at a wavelength of 294 nm (UV detector: Shimadzu Corporation)

[3] = lower-compartment solution (pH 7.02), room temperature, 1st day, time 0
[4] = lower-compartment solution (pH 7.02), room temperature, 2nd day, time 24
[5] = lower-compartment solution (pH 7.02), room temperature, 6th day, time 120
[6] = lower-compartment solution (pH 7.02), room temperature, 7th day, time 144
[7] = lower-compartment solution (pH 7.02), room temperature, 8th day, time 168
[8] = lower-compartment solution (pH 7.02), room temperature, 10th day, time 216
[9] = lower-compartment solution (pH 7.02), room temperature, 15th day, time 336
[10] = lower-compartment solution (pH 7.02), room temperature, 21st day, time 480
[11] = peritoneal dialysis fluid mixture (pH 6.76), room temperature, 1st day, time 0
[12] = peritoneal dialysis fluid mixture (pH 6.76), room temperature, 2nd day, time 24
[13] = peritoneal dialysis fluid mixture (pH 6.76), room temperature, 6th day, time 120
[14] = peritoneal dialysis fluid mixture (pH 6.76), room temperature, 7th day, time 144
[15] = peritoneal dialysis fluid mixture (pH 6.76), room temperature, 8th day, time 168
[16] = peritoneal dialysis fluid mixture (pH 6.76), room temperature, 10th day, time 216
[17] = peritoneal dialysis fluid mixture (pH 6.76), room temperature, 15th day, time 336
[18] = peritoneal dialysis fluid mixture (pH 6.76), room temperature, 21st day, time 480
[19] = upper-compartment solution (pH 4.15), room temperature, 1st day, time 0
[20] = upper-compartment solution (pH 4.15), room temperature, 2nd day, time 24
[21] = upper-compartment solution (pH 4.15), room temperature, 6th day, time 120
[22] = upper-compartment solution (pH 4.15), room temperature, 7th day, time 144
[23] = upper-compartment solution (pH 4.15), room temperature, 8th day, time 168
[24] = upper-compartment solution (pH 4.15), room temperature, 10th day, time 216
[25] = upper-compartment solution (pH 4.15), room temperature, 15th day, time 336
[26] = upper-compartment solution (pH 4.15), room temperature, 21st day, time 480

With `Cc1ncc(CO)c(CN)c1O.Cl.Cl` [pyridoxamine dihydrochloride, Pyridoxamine dihydrochloride] as the molecule, how does the “pentosidine concentration in the peritoneum tissue compared with control group” value ([1]; acid peritoneal dialysis fluid) read?
Its value is “significantly lower”.

What about the “Pentosidine concentration in peritoneal tissue” value ([1]; per mg of peritoneum (wet mass), acid peritoneal dialysis fluid 20 ml i.p., control group 0.065) of the same molecule?
The value was 0.022 pmol/mg.

And the “peak height of pyridoxamine measured by HPLC” value (from here on “peak height … by HPLC”) [2, 3]?
The value was 13265.

What about the “rate of peak height of pyridoxamine to first measurement day” value (“rate of peak height of pyridoxamine” below) [2, 3] of the same molecule?
Its value is 100%.

And the “peak height … by HPLC” value [2, 4]?
Its value is 12959.

And the “rate of peak height of pyridoxamine” value [2, 4]?
Its value is 98%.

What about the “peak height … by HPLC” value [2, 5] of the same molecule?
The value was 13029.

And the “rate of peak height of pyridoxamine” value [2, 5]?
The value was 98%.

What about the “peak height … by HPLC” value [2, 6] of the same molecule?
The value was 12800.

What about the “rate of peak height of pyridoxamine” value [2, 6] of the same molecule?
Its value is 96%.

And the “peak height … by HPLC” value [2, 7]?
The value was 12206.

And the “rate of peak height of pyridoxamine” value [2, 7]?
The value was 92%.

And the “peak height … by HPLC” value [2, 8]?
Its value is 11887.

And the “rate of peak height of pyridoxamine” value [2, 8]?
Its value is 90%.

What about the “peak height … by HPLC” value [2, 9] of the same molecule?
Its value is 11342.

What about the “rate of peak height of pyridoxamine” value [2, 9] of the same molecule?
The value was 86%.

What about the “peak height … by HPLC” value [2, 10] of the same molecule?
Its value is 10505.

What about the “rate of peak height of pyridoxamine” value [2, 10] of the same molecule?
Its value is 79%.

What about the “peak height … by HPLC” value [2, 11] of the same molecule?
Its value is 11061.

What about the “rate of peak height of pyridoxamine” value [2, 11] of the same molecule?
The value was 100%.

What about the “peak height … by HPLC” value [2, 12] of the same molecule?
Its value is 9991.

What about the “rate of peak height of pyridoxamine” value [2, 12] of the same molecule?
Its value is 90%.

What about the “peak height … by HPLC” value [2, 13] of the same molecule?
The value was 10323.

And the “rate of peak height of pyridoxamine” value [2, 13]?
The value was 93%.

What about the “peak height … by HPLC” value [2, 14] of the same molecule?
The value was 9821.

And the “rate of peak height of pyridoxamine” value [2, 14]?
Its value is 89%.

What about the “peak height … by HPLC” value [2, 15] of the same molecule?
The value was 9924.

And the “rate of peak height of pyridoxamine” value [2, 15]?
The value was 90%.

And the “peak height … by HPLC” value [2, 16]?
The value was 9612.

And the “rate of peak height of pyridoxamine” value [2, 16]?
Its value is 87%.

What about the “peak height … by HPLC” value [2, 17] of the same molecule?
Its value is 9429.

What about the “rate of peak height of pyridoxamine” value [2, 17] of the same molecule?
Its value is 85%.

What about the “peak height … by HPLC” value [2, 18] of the same molecule?
Its value is 6322.

And the “rate of peak height of pyridoxamine” value [2, 18]?
Its value is 57%.

What about the “pyridoxamine content relative to original content” value ([2]; upper-compartment and lower-compartment solutions before mixing, room temperature, within three weeks) of the same molecule?
Its value is 70%.

What about the “peak height … by HPLC” value [2, 19] of the same molecule?
Its value is 14051.

What about the “rate of peak height of pyridoxamine” value [2, 19] of the same molecule?
Its value is 100%.

And the “peak height … by HPLC” value [2, 20]?
Its value is 13271.

And the “rate of peak height of pyridoxamine” value [2, 20]?
Its value is 94%.

And the “peak height … by HPLC” value [2, 21]?
Its value is 13084.

And the “rate of peak height of pyridoxamine” value [2, 21]?
Its value is 93%.

What about the “peak height … by HPLC” value [2, 22] of the same molecule?
Its value is 13316.

And the “rate of peak height of pyridoxamine” value [2, 22]?
The value was 95%.

And the “peak height … by HPLC” value [2, 23]?
Its value is 11561.

What about the “rate of peak height of pyridoxamine” value [2, 23] of the same molecule?
The value was 82%.

What about the “peak height … by HPLC” value [2, 24] of the same molecule?
Its value is 12139.

What about the “rate of peak height of pyridoxamine” value [2, 24] of the same molecule?
The value was 86%.

What about the “peak height … by HPLC” value [2, 25] of the same molecule?
The value was 11518.

And the “rate of peak height of pyridoxamine” value [2, 25]?
The value was 82%.

What about the “peak height … by HPLC” value [2, 26] of the same molecule?
Its value is 10605.

And the “rate of peak height of pyridoxamine” value [2, 26]?
Its value is 75%.

And the “stability of pyridoxamine in the peritoneal dialysis fluid” value ([2]; upper-compartment solution, lower-compartment solution and mixture, left for three weeks)?
Its value is “unstable”.
